# Measurements: patent US20090292021A1, “ANTICONVULSIVE PHARMACEUTICAL COMPOSITIONS” (INSERM (INSTITUT NATIONAL DE LA SANTE ET DE LA REC, priority 2006, published 2009)
# Columns and labels:
# Type in all cases: in vivo, rat
# [1] = tested on: Wistar rats; test: Flicker ERG recording in VGB-treated rats; conditions: for decrease of flicker ERG amplitude: vs before treatment
# Description: (§1) As described previously Duboc, A., Hanoteau, N., Simonutti, M., Rudolf, G., Nehlig, A., Sahel, J. A., Picaud, S. (2004). “Vigabatrin, the GABA-transaminase inhibitor, damages cone photoreceptors in rats.” Annals of Neurology 55(5): 695-705), Wistar rats Rj Wi IOPS Han were purchased from Janvier Breeding Center (Le Genest St Isle, France) at 7 weeks and acclimatised for 2 weeks. VGB was dissolved in 0.9% NaCl at a concentration of 125 mg/ml. It was injected daily and intraperitonealy at a final dose of 250 mg/kg. To investigate the progression of visual defects with the treatment duration, rats of the same age were divided in five groups and treated with the drug for different times as described in table 1 hereunder.
# Flicker ERGs were recorded on each animal before the treatment, at the end of the VGB treatment, and 4-day later. For the study of functional recovery after VGB withdrawal, flicker ERGs were recorded before the treatment, at 35-day of treatment, 16-day recovery and 60-day recovery period.
# Animals were kept in the dark room for at least 12 hours and handled under dim red light. They were anaesthetized by an intraperitoneal (i.p) injection (1 to 1.5 ml/kg) of a solution containing ketamine (40 mg/ml) and xylazine (4 mg/ml Rompum). Pupils were dilated with a drop of 0.5% tropicamide, and the cornea was locally anaesthetized with a drop of 0.4% chlorhydrate d'oxybupropacaïne. Measurements were obtained from the right eye of animals laid on a temperature controlled blanket. The measuring electrode, a gold ring covered with a plastic contact lens, was placed on the cornea and a tight electrical contact was obtained by addition of methylcellulose. The reference and ground electrodes made from needles were subcutaneously inserted at the head and the tail respectively. Finally, the whole animal was placed in a Ganzfeld bowl delivering light stimuli (Toennies Multiliner Vision, Höchberg, Germany). For flickering ERG measurements, animals were adapted for 10 minutes to a white background light at a 25 cdm^−2 to suppress rod responses. Flicker responses were obtained with 50 white light flashes at a 2.5 cdsm^−2 intensity and a 15 Hz flickering frequency (High pass filter 1 Hz and low pass filter 300 Hz). Amplitude and implicit time responses of the flicker ERG were measured at the first maximum positive peak with respect to the light onset.
# [2] = tested on: Wistar rats; test: Exploration of eye fundus with scanning laser ophthalmoscope (SLO)
# Description: as §1
# Examination of the eye fundus was performed with a Scanning Laser Opthalmoscope (SLO) (HRA, Heidelberg, Dossenheim, Allemagne). Pupils were dilated with a drop of 0.5% tropicamide. During the examination an experimenter hold the animal to point the eye in the axis of camera. To limit animal stress, the duration of examination was minimized and these short sequences were alternated with rests periods. Eye fundus in each animal eye was examined in unanaesthetized rats with the 534 nm laser light beam using a filter to decrease its intensity. Fundus autofluorescence was obtained with the 488 nm laser beam.
# [3] = tested on: Wistar rats; test: Indocyanine green (ICG) angiography of choroidal vessels
# Description: as §1
# For ICG angiography, animals were anesthetized as above. A solution of Infracyanine (0.1 ml, 5 mg/ml, Société d'Etude et de Recherche Biologiques, Paris, France) dissolved in distilled water was injected intravenously. Images were obtained with the 795 nm laser light immediately after the injection.
# [4] = tested on: Wistar rats; test: Length of disorganized outer retina on DAPI-stained retinal sections; conditions: treatment of 45 days, mean ± S.E.M, n=8
# Description: as §1
# (§2) After the animal sacrifice, the cornea was branded at the upper side to orient the eye cup. The eyes were dissected, the cornea and lens removed and a nick was made on the upper side of the eye cup. Eye cups were embedded in OCT (Labonord, Villeneuve d'Ascq, France) to prepare cryosection (Duboc et al 2004, Supra). Dorso-ventral retinal sections passing through the optic nerve were stained with Diamidi-phenyl-indole (DAPI). […] The retinal length showing displaced photoreceptor nuclei was measured on both part of the optic nerve on the retina of VGB-treated rat.
# [5] = tested on: Wistar rats; test: Immunolabeling of retinal sections: cone arrestin (cone count) and G0α (ON bipolar cells); conditions: treated for 45 days
# Description: as §1
# After the animal sacrifice, the cornea was branded at the upper side to orient the eye cup. The eyes were dissected, the cornea and lens removed and a nick was made on the upper side of the eye cup. Eye cups were embedded in OCT (Labonord, Villeneuve d'Ascq, France) to prepare cryosection (Duboc et al 2004, Supra). Dorso-ventral retinal sections passing through the optic nerve were stained with Diamidi-phenyl-indole (DAPI). The DAPI-nuclear staining was visualized on a Leica microscope (20× objective) and digitalized on a camera coupled to optical image analysis software (Analysis program). The retinal length showing displaced photoreceptor nuclei was measured on both part of the optic nerve on the retina of VGB-treated rat.
# For immunolabeling, the oriented retinal sections were permeabilized for 5 minutes in PBS containing 0.1% Triton X-100 (Sigma, St Louis, Mo.), rinsed and incubated in PBS containing 1% bovine serum albumin (Eurobio, Les-Ulis, France), 0.1% Tween 20 (Sigma) and 0.1% sodium azide (Merck, Fontenay-Sous-Bois) for 2 hours at room temperature. The primary antibodies added to the solution were incubated for 2 hours at room temperature. Antibodies used were the anti-VEGF rabbit polyclonal antibody (1:400, Ab-1, NeoMarkers, Interchim, France), the monoclonal anti-vimentin antibody (1:400, cloneV9, DAKO, France), the polyclonal mCAR antibody (1:10,000; a gift from Dr Cheryl Craft (Keck School of Medicine of the University of Southern California, Los Angeles, USA)), and the monoclonal anti-G0-α antibody (1:500, Chemicon). After several washes, sections were incubated with the secondary antibodies, goat anti-rabbit IgG conjugated to Alexa TM 594 and goat anti-mouse IgG conjugated to Alexa TM 488 (1:500, (Molecular Probes, Eugene, Oreg.) for 2 hours. The nuclear dye, DAPI, was added in an incubation solution. Sections were mounted with the Fluorsave reagent (Calbiochem, San Diego, Calif.).
# [6] = tested on: Wistar rats; test: VEGF immunolabeling of retinal sections; conditions: VGB-treated vs control animals
# Description: as §1
# as §2, with “rat. […]” for “rat.”
structure (smiles),measurement,setting,value
"C=CC(N)CCC(=O)O (centres unmarked) [VGB, 4-amino-5-hexenoic acid]",flicker ERG amplitude,"[1]; 15-day treatment, after 4-day recovery period",51 μV
same,flicker ERG amplitude,"[1]; 25-day treatment, after 4-day recovery period",38 μV
same,flicker ERG amplitude,"[1]; 35-day treatment, after 4-day recovery period",50 μV
same,flicker ERG amplitude,"[1]; end of 5-day treatment, 250 mg/kg daily i.p.",83 μV
same,flicker ERG amplitude,"[1]; end of 15-day treatment, 250 mg/kg daily i.p.",52 μV
same,decrease of flicker ERG amplitude,[1]; end of 15-day treatment,45%
same,flicker ERG amplitude,"[1]; end of 25-day treatment, 250 mg/kg daily i.p.",21 μV
same,decrease of flicker ERG amplitude,[1]; end of 25-day treatment,79%
same,flicker ERG amplitude,"[1]; end of 35-day treatment, 250 mg/kg daily i.p.",29 μV
same,decrease of flicker ERG amplitude,[1]; end of 35-day treatment,71%
same,flicker ERG amplitude,"[1]; recovery study, 35-day treatment, 16-day recovery",84 μV
same,reduction of flicker ERG,"[1]; recovery study, 35-day treatment, 16-day recovery, vs value before treatment",31%
same,flicker ERG amplitude,"[1]; recovery study, 35-day treatment, 60-day recovery",88 μV
same,reduction of flicker ERG,"[1]; recovery study, 35-day treatment, 60-day recovery, vs value before treatment",28%
same,flicker ERG amplitude,"[1]; recovery study, 35-day treatment, immediately after treatment, n=6",51 μV
same,reduction of flicker ERG,"[1]; recovery study, 35-day treatment, immediately after treatment, vs beginning of experiment",58%
same,"retinal autofluorescence, SLO","[2]; 488 nm laser, in vivo",fluorescent spots were observed in the modified areas in two rats
same,"modified retinal areas at eye fundus, SLO",[2]; after arresting the VGB treatment for one month (n=2),remained visible
same,"modified retinal areas (dark/grey network) at eye fundus, green laser SLO","[2]; after treatment of 25 days (n=4), 35 days (n=1) and 55 days (n=4)",present in all animals examined
same,"modified retinal areas at eye fundus, SLO",[2]; animals treated for 5 days (n=1) or 11 days (n=3),No such modified areas were detected
same,size or aspect of the choroidal vasculature,[3]; after treatment of 25 (n=4) and 55 days (n=4),no change in the size or aspect of the choroidal vasculature could be detected
same,ICG fluorescence in areas showing modified eye fundus after extravasation,[3]; animals treated for 55 days,inhomogeneous fluorescent image
same,"length of disorganized outer retina, lower pole",[4],70 μm
same,"length of disorganized outer retina, upper pole",[4],1106 μm
same,ON bipolar cells labeled with G0α antibody,[5],some cells were observed to send a process into the ONL
same,"cone morphology, cone arrestin labelling",[5],many cones were observed to be truncated
same,decrease in density of cones vs control rats,[5]; cone arrestin immunolabeling,18.7%
same,density of cones,"[5]; cone arrestin immunolabeling, n=7",12.34±0.36 cells/300 μm
same,VEGF expression in retina (Müller glial cells),[6],increase in VEGF expression
